Values quoted from earlier work in US6045829A, “Nanocrystalline formulations of human immunodeficiency virus (HIV) protease inhibitors using cellulosic surface stabilizers” (Elan Pharma International Limited, priority 1997, dated 2000).
Read-outs that look alike come from different tables or passages of the source. Each block holds one molecule with its values, some of them ahead of it.

Tests used:
[1] = tested on: HIV reverse transcriptase (RT); conditions: for effectiveness in treating HIV infection: in vivo; for side effects: interfere with cellular enzymes similar to the HIV viral enzyme

SMILES: O=c1[nH]cnc2c1ncn2[C@H]1CC[C@@H](CO)O1 [ddI, didanosine]
effectiveness in treating HIV infection [1]: only modestly effective
side effects [1]: severe side effects

SMILES: Cc1cn([C@H]2C[C@H](N=[N+]=[N-])[C@@H](CO)O2)c(=O)[nH]c1=O [AZT, azidothymidine]
side effects [1]: severe side effects

SMILES: N#Cc1ccc(S(=O)(=O)Nc2cccc(C(c3c(O)c4c(oc3=O)CCCCCC4)C3CC3)c2)cc1 (stereo not shown) [U-103,017]
oral bioavailability (oral): low oral bioavailability

SMILES: O[C@H](CS)[C@H](O)CS (racemic) [ddT, dithiothreitol]
effectiveness in treating HIV infection [1]: only modestly effective
side effects [1]: severe side effects

SMILES: CSC[C@H](NC(=O)COc1cccc2cnccc12)C(=O)N[C@@H](Cc1ccccc1)[C@H](O)C(=O)N1CSC[C@H]1C(=O)NC(C)(C)C [KNI-272]
oral bioavailability (oral): low oral bioavailability

SMILES: Cc1c(O)cccc1C(=O)N[C@@H](CSc1ccccc1)[C@H](O)CN1C[C@H]2CCCC[C@H]2C[C@H]1C(=O)NC(C)(C)C [AG1343]
oral bioavailability (in vivo, po): low oral bioavailability

SMILES: CC(C)(C)NC(=O)[C@@H]1CN(Cc2cccnc2)CCN1C[C@@H](O)C[C@@H](Cc1ccccc1)C(=O)N[C@H]1c2ccccc2C[C@H]1O [MK-639, N-(2-(R)-hydroxy-1(S)-indanyl)-2(R)-phenylmethyl-4-(S)-hydroxy-5-(1-(4-(3-pyridylmethyl)-2(S)-N'-(t-butylcarboxamido)-piperazinyl))-pentaneamide]
oral bioavailability (in vivo, po): low oral bioavailability

Next, values leading:

oral bioavailability (in vivo, po): low oral bioavailability
SMILES: CC(C)CN(C[C@@H](O)[C@H](Cc1ccccc1)NC(=O)O[C@H]1CCOC1)S(=O)(=O)c1ccc(N)cc1 [VX-478]

oral bioavailability (in vivo, po): low oral bioavailability
SMILES: CC(C)(C)NC(=O)[C@@H]1C[C@@H]2CCCC[C@@H]2CN1C[C@@H](O)[C@H](Cc1ccccc1)NC(=O)[C@H](CC(N)=O)NC(=O)c1ccc2ccccc2n1 [saquinavir]

oral bioavailability (in vivo, po): low oral bioavailability
SMILES: CC(C)c1nc(CN(C)C(=O)N[C@H](C(=O)N[C@@H](Cc2ccccc2)C[C@H](O)[C@H](Cc2ccccc2)NC(=O)OCc2cncs2)C(C)C)cs1 [ABT-538]

oral bioavailability (in vivo, po): low oral bioavailability
SMILES: Nc1cccc(CN2C(=O)N(Cc3cccc(N)c3)[C@H](Cc3ccccc3)[C@H](O)[C@@H](O)[C@H]2Cc2ccccc2)c1 [DMP-450]
